Bridge positions count the residues as written; N and C are the ends. Peptide text beside a SMILES is read from it.
Assays:
para/tipE = assay: Two-electrode voltage-clamp on Xenopus laevis oocytes expressing insect Nav channel para/tipE; format: cell-based, Fruit fly; conditions: 1 µM; voltage of maximum sodium influx, holding −90 mV; oocytes TEVC; n ≥ 3
Excerpt: Using the two-electrode voltage-clamp technique on Xenopus laevis oocytes, the effect of PhlTx1 was also compared on eight different cloned vertebrate Nav channels co-expressed with the β1 subunit (Nav1.1-1.8/β1) and on the neuronal insect Nav channel, para, co-expressed with the tipE subunit (Figure 3 and Figure 4). […] Normalized current-voltage relationships (I-V curve) of Nav1.2/β1 and Nav1.3/β1 channels seemed to be shifted towards more negative potentials when PhlTx1 was applied, but shifts were not statistically significant […] (Figure 4). The activation phase of the other studied Nav channel subtypes was not affected. No obvious alteration in channel availability was observed, except a 5-mV negative shift for Nav1.3/β1, although that was also non-significant (p > 0.05).
Figure 4 1 µM of PhlTx1 was tested on Nav1.1/β1, Nav1.2/β1, Nav1.3/β1, Nav1.4/β1, Nav1.5/β1, Nav1.6/β1, Nav1.8/β1 and para/tipE (n ≥ 3). Left column: current traces were evoked by a 50-ms depolarization to the voltage of maximum sodium influx, depending on the Nav studied, from a holding potential of −90 mV. At 1 µM PhlTx1, all studied Nav channels, except Nav1.4/β1, were blocked for about 10% (no toxin: *). The current of Nav1.4/β1 was reduced for about 35 ± 5%. Middle column: normalized I-V curves reveal no significant shift of the activation voltage (p > 0.05). […]

[1] = mice; PhlTx1 100 pmoles or morphine 0.25 mg in 10 µL

CC(C)C[C@@H]1NC(=O)[C@@H](NC(=O)[C@H](C)N)CSSC[C@@H]2NC(=O)[C@@H]3CSSC[C@@H](C(=O)N[C@@H](CCCNC(=N)N)C(=O)N[C@@H](Cc4ccc(O)cc4)C(=O)N[C@@H](CCCCN)C(=O)N[C@@H](CC(C)C)C(=O)N[C@@H](Cc4ccccc4)C(=O)O)NC(=O)[C@H](Cc4c[nH]c5ccccc45)NC(=O)[C@@H]4CCCN4C(=O)[C@H](Cc4ccc(O)cc4)NC(=O)[C@H](CCCCN)NC(=O)[C@H](Cc4c[nH]c5ccccc45)NC(=O)[C@H](CCC(=O)O)NC(=O)[C@H](CSSC[C@H](NC(=O)[C@H](CO)NC(=O)[C@H](CC(=O)O)NC(=O)[C@H](Cc4c[nH]c5ccccc45)NC(=O)[C@H](CCC(N)=O)NC(=O)CNC1=O)C(=O)N[C@@H](CC(=O)O)C(=O)N1CCC[C@H]1C(=O)N[C@@H](CCCCN)C(=O)N[C@@H](C)C(=O)N[C@@H](CO)C(=O)N[C@@H](CCCCN)C(=O)N3)NC(=O)[C@H](C)NC(=O)[C@H](Cc1ccc(O)cc1)NC(=O)[C@H](CC(N)=O)NC(=O)[C@@H]1CCCN1C2=O [PhlTx1, Phlotoxin-1] (H-ACLGQWDSCDPKASKCCPNYACEWKYPWCRYKLF-OH; disulfide 2-17, 9-22, 16-29; N-terminus and C-terminus assumed)
block of sodium current (para/tipE): about 10% | neurotoxicity after intrathecal injection [1]: no neurotoxicity was observed

Reference: paper PMC6628435, “Chemical Synthesis, Proper Folding, Nav Channel Selectivity Profile and Analgesic Properties of the Spider Peptide Phlotoxin 1” (Toxins, 2019)
